The values below come from US10233193B2, “Fused tricyclic heterocyclic compounds useful for treating HIV infection” (MERCK SHARP & DOHME CORP., priority 2015, dated 2019).

This experiment relates to HIV-1 (NL4-3 strain). Description: Assay for inhibition of HIV replication (MT4-gag-GFP reporter cell line, wild type cell assay, Viking). It is filed as cell-based. The following applies: IP or IC50 from 4-parameter dose response curve. As to the method:
This assay is a kinetic assay that employs a reporter cell line (MT4-gag-GFP) to quantify the number of new cells infected in each round of replication.
MT4-GFP cells (250,000 cells/ml) were bulk-infected with HIV-1 (NL4-3 strain) at low multiplicity of infection (MOI) in RPMI+10% FBS for 24 hours. Cells were then washed once in RPMI+10% FBS and resuspended in RPMI+0% or 10% or 100% normal human serum (NHS). Test compounds were serial-diluted in DMSO on ECHO. The infected MT4-GFP cells were added to a 384-well poly-D-lysine coated black plate with clear bottom in which the diluted test compounds were placed. The cells were seeded at 8,000 cells per well and the final DMSO concentration was 0.4%. The infected cells (Green GFP cells) were quantified at both 24 and 48 hours post incubation using Acumen eX3. Viral reproductive ratio (R0) was determined using the number of infected cells at 48 hours divided by the number of infected cells at 24 hours. Percent viral growth inhibition was calculated by [1−(R−Rtripledrug)/(RDMSO−Rtripledrug)]*100. Compound potency IP or IC50 was determined by a 4-parameter dose response curve analysis.
Illustrative compounds of the present invention were tested using this assay protocol and results are presented below in Table A.

SMILES strings stand for the structures. Read-outs that look alike come from different tables or passages of the source.

As for `CN1CC[C@@H]2C1C(C)(C)C(=O)c1c(O)c(=O)c(C(=O)NCc3ccc(F)cc3F)cn12` (some centres unmarked) [Compound 9], the IC50 is 174 nM (infected MT4-GFP cells in 100% normal human serum, read-out: WILD TYPE CELL ASSAY Viking IP (100% NHS)) and 5.3 nM (infected MT4-GFP cells in RPMI + 0% normal human serum, read-out: WILD TYPE CELL ASSAY Viking IP (0% NHS)).
